For orientation: Kd means a measure of binding affinity in units of concentration.

Assay [1] addresses T1, human β2AR expressed in an insect cell (Sf9 cell) (Homo sapiens, UniProt P07550).
T1 construct: expressed in transfected cells; host or cells: Sf9 insect cells
Put plainly: Ligand binding saturation experiment with [3H]DHA, positive control receptor. The note with it: n=1, read-out: binding constant (Kd value).

Assay [2] has as its target thioredoxin-fused β2AR-Gs and liposome complex. Put plainly: Ligand binding saturation experiment with [3H]DHA on reconstituted membrane fraction. The note with it: average of three independent experiments; 0 to 25 nM [3H]DHA, 25° C., 60 minutes; read-out: binding constant (Kd value), average. Also on record: species or system human. The method, then: Subsequently, PBS was added to dilute the detergent, and 10% β-dodecylmaltoside (Nacalaitesque) was added dropwise to make the final concentration 1%. […] A complex of the reconstituted thioredoxin-fused β2AR-Gs after completion of the dialysis and the liposome was centrifuged for 1 hours at 100,000×g and 4° C., and the resultant precipitation fraction (reconstituted membrane fraction) was suspended in 50 μl of an incubation buffer (75 mM Tris-HCl (pH7.4), 12.5 mM MgCl2, 2 mM EDTA).
The ligand binding saturation experiment was conducted by incubating this reconstituted membrane fraction (complex of thioredoxin-fused β2AR-Gs and liposome) together with 0 to 25 nM tritium-labeled Dihidroalprenolol ([^3H]DHA) in 200 μl as a final volume of the incubation buffer at 25° C. for 60 minutes. A competition experiment was conducted by incubating the reconstituted membrane fraction described above together with 10 nM [^3H]DHA in the presence or absence of 10^−8 to 10^−2 MAlprenolol (Sigma).

T1 sequence (P07550 whole entry): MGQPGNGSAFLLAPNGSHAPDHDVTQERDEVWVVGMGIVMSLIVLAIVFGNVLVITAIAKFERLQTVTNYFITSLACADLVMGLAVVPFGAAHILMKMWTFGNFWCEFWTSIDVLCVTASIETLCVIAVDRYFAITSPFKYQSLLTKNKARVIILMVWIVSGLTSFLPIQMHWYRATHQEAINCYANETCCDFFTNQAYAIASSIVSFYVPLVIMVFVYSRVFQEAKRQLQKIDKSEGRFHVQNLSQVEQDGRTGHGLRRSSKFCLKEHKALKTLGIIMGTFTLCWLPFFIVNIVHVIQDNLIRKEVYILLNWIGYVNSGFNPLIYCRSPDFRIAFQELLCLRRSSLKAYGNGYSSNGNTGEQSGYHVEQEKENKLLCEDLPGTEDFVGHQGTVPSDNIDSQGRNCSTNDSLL

As to `CCCc1ccccc1OCC(O)CNC(C)C` (centres unmarked) [[^3H]DHA, Dihidroalprenolol], the dissociation constant (Kd) in assay [1] was 3.9 nM; in assay [2], 5.5 ± 1.1 nM.
